Where “and” joins values, the source holds several entries; their conditions need not be identical. Identical values can stand only once.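 Values below derive from 48-hour exposures of cells grown in 96-well plates, with endpoints linearly interpolated between the two concentrations bracketing the appropriate inhibition level. Here, GI50 denotes the concentration required for 50% inhibition of growth. At the TGI there is no net growth.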
What was measured:
Assay in all cases: inhibition of tumour cell growth, NCI panel, 48 h
[1] = tested on: SW-620 colon
[2] = tested on: HOP-62 NSCLC
[3] = tested on: A498 renal
[4] = tested on: HOP-92 NSCLC
[5] = tested on: SR leukemia
[6] = tested on: M14 melanoma
[7] = tested on: SK-OV-3 ovarian
[8] = tested on: NCI/ADR-RES ovarian
[9] = tested on: UACC-62 melanoma
[10] = tested on: SNB-19 CNS
[11] = tested on: HCT-15 colon
[12] = tested on: RPMI-8226 leukemia
[13] = tested on: NCI-H23 lung
[14] = tested on: HL-60(TB) leukemia
[15] = tested on: SK-MEL-5 melanoma
[16] = tested on: HCT-116 colon
[17] = tested on: MDA-MB-435
[18] = tested on: A549 NSCLC
[19] = tested on: LOX IMVI melanoma
[20] = tested on: NCI-H226 lung
[21] = tested on: HS 578T breast
[22] = tested on: UACC-257 melanoma
[23] = tested on: DU-145 prostate
[24] = tested on: SN12C renal
[25] = tested on: MDA-MB-231 breast
[26] = tested on: K-562 leukemia
[27] = tested on: PC-3 prostate
[28] = tested on: SK-MEL-2 melanoma
[29] = tested on: OVCAR-3 ovarian
[30] = tested on: BT-549 breast
[31] = tested on: 786-0 renal
[32] = tested on: CCRF-CEM leukemia
[33] = tested on: COLO 205 colon
[34] = tested on: CAKI-1 renal
[35] = tested on: T-47D breast
[36] = tested on: EKVX NSCLC
[37] = tested on: SF-268 CNS
[38] = tested on: SF-295 CNS
[39] = tested on: MALME-3M melanoma
[40] = tested on: OVCAR-5 ovarian
[41] = tested on: MOLT-4 leukemia
[42] = tested on: IGROV1 ovarian
[43] = tested on: HT29 colon
[44] = tested on: SK-MEL-28 melanoma
[45] = tested on: UO-31 renal
[46] = tested on: MCF7 breast
[47] = tested on: TK-10 renal
[48] = tested on: HCC-2998 colon
[49] = tested on: NCI-H460 lung
[50] = tested on: OVCAR-8 ovarian
[51] = tested on: RXF 393 renal
[52] = tested on: KM12 colon
[53] = tested on: U251 CNS
[54] = tested on: SF-539 CNS
[55] = tested on: NCI-H522 lung
[56] = tested on: ACHN renal
[57] = tested on: OVCAR-4 ovarian
[58] = tested on: SNB-75 CNS

In the case of CN(C)c1ccc2nc3ccc(=[N+](C)C)cc-3sc2c1, the GI50 [1] is reported as 0.344 µM and 0.657 µM, the TGI [1] is reported as 13.5 µM and 19.1 µM and the GI50 [2] is reported as 2.47 µM and 4.89 µM. The TGI [2] was 15.9 µM and 21.9 µM, the GI50 [3] was 4.12 µM and 6.21 µM and the TGI [3] was 22 µM and 55.8 µM. The GI50 [4] was 2.59 µM and 1.74 µM, the TGI [4] was 24.8 µM and 11.1 µM and the GI50 [5] was 1.03 µM and 1.45 µM. For the same compound, the TGI [5] was 57.7 µM and 46.2 µM, the GI50 [6] was 0.337 µM and 0.407 µM and the TGI [6] was 1.49 µM and 3.4 µM. For the same compound, the GI50 [7] was 2.63 µM and 5.11 µM, the TGI [7] was 12.6 µM and 25.9 µM and the GI50 [8] was 0.408 µM and 0.563 µM. For the same compound, the TGI [8] was 23.1 µM and 14.2 µM, the GI50 [9] was 0.808 µM and 2.64 µM and the TGI [9] was 2.61 µM and 15.2 µM. The GI50 [10] was 0.908 µM and 0.543 µM, the TGI [10] was 16.3 µM and 46.1 µM and the GI50 [11] was 0.446 µM and 0.795 µM. The TGI [11] was 18.2 µM and > 100 µM, the GI50 [12] was 0.214 µM and 1.23 µM and the TGI [12] was 26 µM and 39.6 µM. The GI50 [13] was 0.322 µM and 0.597 µM, the TGI [13] was 4.99 µM and 12.7 µM and the GI50 [14] was 0.0938 µM and 0.187 µM. The TGI [14] was 2.28 µM and 1.35 µM, the GI50 [15] was 0.146 µM and 0.39 µM and the TGI [15] was 0.412 µM and 1.98 µM. The GI50 [16] was 0.29 µM and 0.373 µM, the TGI [16] was 2.45 µM and 5.76 µM and the GI50 [17] was 0.976 µM and 1.46 µM. The TGI [17] was 3.26 µM and 4.02 µM, the GI50 [18] was 0.236 µM and 0.321 µM and the TGI [18] was 3.3 µM and 12 µM. The GI50 [19] was 0.404 µM and 0.65 µM, the TGI [19] was 7.61 µM and 10.4 µM and the GI50 [20] was 1.82 µM and 12.7 µM. For the same compound, the TGI [20] was 16.6 µM and 36.6 µM, the GI50 [21] was 3.08 µM and 3.62 µM and the TGI [21] was > 28.2 µM and 35.6 µM. The GI50 [22] was 0.219 µM and 0.411 µM, the TGI [22] was 0.711 µM and 2.36 µM and the GI50 [23] was 3.4 µM and 3.86 µM. For the same compound, the TGI [23] was 16 µM and 14.8 µM, the GI50 [24] was 0.71 µM and 1.38 µM and the TGI [24] was 7.05 µM and 12.6 µM. The GI50 [25] was 0.512 µM and 1.36 µM, the TGI [25] was 12.9 µM and 16.9 µM and the GI50 [26] was 0.469 µM and 0.509 µM. The TGI [26] was 18.7 µM and 48.5 µM, the GI50 [27] was 0.161 µM and 0.288 µM and the TGI [27] was 2.71 µM and 16.2 µM. For the same compound, the GI50 [28] was 1.44 µM and 0.544 µM, the TGI [28] was 3.68 µM and 13.6 µM and the GI50 [29] was 0.307 µM and 0.3 µM. For the same compound, the TGI [29] was 1.66 µM, the GI50 [30] was 9.74 µM and 3.26 µM and the TGI [30] was 24.2 µM and 22.7 µM. The GI50 [31] was 2.68 µM and 2.92 µM, the TGI [31] was 17.6 µM and 27.1 µM and the GI50 [32] was 0.394 µM and 0.685 µM. The GI50 [33] was 0.497 µM and 0.47 µM, the TGI [33] was 1.96 µM and 5.3 µM and the GI50 [34] was 2.17 µM and 1.96 µM. The TGI [34] was 19.4 µM and 8.5 µM, the GI50 [35] was 0.36 µM and 0.558 µM and the TGI [35] was 3.5 µM and 12.7 µM. For the same compound, the GI50 [36] was 4.24 µM and 0.804 µM, the TGI [36] was 28.3 µM and 29.4 µM and the GI50 [37] was 0.446 µM and 1.08 µM. For the same compound, the TGI [37] was 15.4 µM and 15.1 µM, the GI50 [38] was 0.329 µM and 0.934 µM and the TGI [38] was 10.3 µM and 10.2 µM. For the same compound, the GI50 [39] was 0.422 µM and 0.848 µM, the TGI [39] was 1.77 µM and 3.57 µM and the GI50 [40] was 0.599 µM and 0.642 µM. The TGI [40] was 11.3 µM and 17.3 µM, the GI50 [41] was 1.11 µM and 0.934 µM and the TGI [41] was > 27.6 µM and 15.4 µM. The GI50 [42] was 1.18 µM and 2.03 µM, the TGI [42] was 11.5 µM and 6.47 µM and the GI50 [43] was 3.41 µM and 4.14 µM. The TGI [43] was 11.2 µM and 20.8 µM, the GI50 [44] was 1.52 µM and 4.41 µM and the TGI [44] was 4.69 µM and 18.2 µM. The GI50 [45] was 3.65 µM and 6.28 µM, the TGI [45] was 19.8 µM and 29.1 µM and the GI50 [46] was 0.304 µM and 0.324 µM. The TGI [46] was 12.2 µM and 14.5 µM, the GI50 [47] was 3.98 µM and 1.42 µM and the TGI [47] was 16.1 µM and 17.2 µM. For the same compound, the GI50 [48] was 0.745 µM and 6.32 µM, the TGI [48] was 17.8 µM and 36 µM and the GI50 [49] was 0.431 µM and 1.03 µM. For the same compound, the TGI [49] was 14.9 µM and > 37.5 µM, the GI50 [50] was 0.261 µM and 0.39 µM and the GI50 [51] was 2.73 µM and 10.1 µM. The TGI [51] was 18 µM and 27.9 µM, the GI50 [52] was 0.724 µM and 0.696 µM and the TGI [52] was 19.6 µM and 15.7 µM. The GI50 [53] was 0.248 µM and 0.341 µM, the TGI [53] was 2.23 µM and 11.2 µM and the GI50 [54] was 0.139 µM and 0.379 µM. For the same compound, the TGI [54] was 9.82 µM and 14.7 µM, the GI50 [55] was 0.232 µM and 0.449 µM and the TGI [55] was 0.906 µM and 4.5 µM. The GI50 [56] was 2.65 µM and 3.04 µM, the TGI [56] was 15.3 µM and 24.1 µM and the GI50 [57] was 0.192 µM and 0.295 µM. The TGI [57] was 1.25 µM and 3.79 µM, the GI50 [58] was 1.79 µM and 2.92 µM and the TGI [58] was 10.1 µM and 17.3 µM.
